Source: PubChem BioAssay AID330 (DTP/NCI, 2004)
Where “and” joins values, the source holds several entries; their conditions need not be identical. Equal values may be shown once. Toxic doses and inconclusive results are not listed. The calls were made as follows: active = survival T/C of 150% or more; inactive = T/C below 125% in these data.

System: P388 leukemia ip, CD2F1 mice, survival T/C
Assay: NCI In Vivo Anticancer Drug Screen. Data for tumor model P388 Leukemia (intraperitoneal) in CD2F1 (CDF1) mice
Settings: endpoint: median survival time, higher = longer survival
Procedure, shortened: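 Mice carrying the transplanted tumor received test compound or vehicle. Survival was recorded in each group, and the value is the treated-group measurement divided by that of the vehicle-treated control group.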

[1] = dose: 25.0 mg/kg/injection, schedule: Q01DX009 (ip), vehicle: saline
[2] = dose: 50.0 mg/kg/injection, schedule: Q01DX009 (ip), vehicle: saline
[3] = dose: 50.0 mg/kg/injection, schedule: Q01DX005 (ip), vehicle: saline with Tween-80
[4] = dose: 60.0 mg/kg/injection, schedule: Q01DX005 (ip), vehicle: saline with Tween-80
[5] = dose: 120.0 mg/kg/injection, schedule: Q01DX005 (ip), vehicle: saline with Tween-80
[6] = dose: 240.0 mg/kg/injection, schedule: Q01DX005 (ip), vehicle: saline with Tween-80
[7] = dose: 60.0 mg/kg/injection, schedule: Q01DX005 (ip), vehicle: saline
[8] = dose: 120.0 mg/kg/injection, schedule: Q01DX005 (ip), vehicle: saline
[9] = dose: 240.0 mg/kg/injection, schedule: Q01DX005 (ip), vehicle: saline
[10] = dose: 100.0 mg/kg/injection, schedule: Q01DX005 (ip), vehicle: saline with Tween-80
[11] = dose: 200.0 mg/kg/injection, schedule: Q01DX005 (ip), vehicle: saline with Tween-80
[12] = dose: 100.0 mg/kg/injection, schedule: Q01DX009 (ip), vehicle: saline with Tween-80
[13] = dose: 200.0 mg/kg/injection, schedule: Q01DX009 (ip), vehicle: saline with Tween-80
[14] = dose: 50.0 mg/kg/injection, schedule: Q01DX009 (ip), vehicle: Klucel (hydroxypropylcellulose) (HPC)
[15] = dose: 100.0 mg/kg/injection, schedule: Q01DX009 (ip), vehicle: Klucel (hydroxypropylcellulose) (HPC)
[16] = dose: 200.0 mg/kg/injection, schedule: Q01DX009 (ip), vehicle: Klucel (hydroxypropylcellulose) (HPC)
[17] = dose: 50.0 mg/kg/injection, schedule: Q01DX009 (ip), vehicle: saline with Tween-80
[18] = dose: 50.0 mg/kg/injection, schedule: Q01DX005 (ip), vehicle: Klucel (hydroxypropylcellulose) (HPC)
[19] = dose: 100.0 mg/kg/injection, schedule: Q01DX005 (ip), vehicle: Klucel (hydroxypropylcellulose) (HPC)
[20] = dose: 200.0 mg/kg/injection, schedule: Q01DX005 (ip), vehicle: Klucel (hydroxypropylcellulose) (HPC)

Measured: T/C

Nc1nc(SCc2ccccc2)c2ncn(CCCl)c2n1
inactive: dose: 0.78 mg/kg/injection, schedule: Q01DX009 (ip), vehicle: saline 97 % of control | dose: 1.56 mg/kg/injection, schedule: Q01DX009 (ip), vehicle: saline 101 % of control | dose: 3.12 mg/kg/injection, schedule: Q01DX009 (ip), vehicle: saline 105 % of control | dose: 6.25 mg/kg/injection, schedule: Q01DX009 (ip), vehicle: saline 102 % of control and 95 % of control | dose: 6.25 mg/kg/injection, schedule: Q01DX009 (ip), vehicle: suspension in saline 103 % of control | [1] 100 % of control | [2] 111 % of control | dose: 50.0 mg/kg/injection, schedule: Q01DX009 (ip), vehicle: suspension in saline 94 % of control

Nc1nc(C(Br)Br)c([N+](=O)[O-])c(=O)[nH]1
inactive: dose: 12.0 mg/kg/injection, schedule: Q01DX005 (ip), vehicle: saline with Tween-80 97 % of control | dose: 12.5 mg/kg/injection, schedule: Q01DX005 (ip), vehicle: saline with Tween-80 100 % of control | dose: 25.0 mg/kg/injection, schedule: Q01DX005 (ip), vehicle: saline with Tween-80 104 % of control and 94 % of control | [3] 112 % of control and 97 % of control

COC1C=CC(=O)C(C)(c2ccc(S(=O)(=O)c3ccccc3)cc2)O1 (centres undefined)
inactive: [4] 104 % of control | [5] 95 % of control | [6] 106 % of control

[N-]=[N+]=NCC1OC(n2cnc3c(N)ncnc32)CC1O (centres undefined)
inactive: [7] 104 % of control | [8] 100 % of control | [9] 104 % of control

O=C(Cc1nc2ccc(Cl)cc2[nH]c1=O)c1ccccc1
inactive: [4] 112 % of control | [5] 108 % of control | [6] 107 % of control

O=C(NCCNCCO)c1cccc(Nc2cc(O)c(O)c3ccccc23)c1
inactive: [3] 108 % of control | [10] 100 % of control | [11] 97 % of control

CCSc1nnc(C2CCC(=O)N2Cc2ccccc2)o1 (centres undefined)
inactive: [4] 94 % of control | [5] 100 % of control | [6] 100 % of control

CCCCCCCCCCCCCCCCNc1cccc2ccccc12
inactive: dose: 100.0 mg/kg/injection, schedule: Q01DX009 (ip), vehicle: saline sonified 95 % of control | [12] 100 % of control | dose: 100.0 mg/kg/injection, schedule: Q04DX003 (ip), vehicle: saline with Tween-80 95 % of control | dose: 200.0 mg/kg/injection, schedule: Q01DX009 (ip), vehicle: saline sonified 105 % of control | [13] 90 % of control | dose: 200.0 mg/kg/injection, schedule: Q04DX003 (ip), vehicle: saline with Tween-80 86 % of control | dose: 400.0 mg/kg/injection, schedule: Q01DX009 (ip), vehicle: saline sonified 95 % of control | dose: 400.0 mg/kg/injection, schedule: Q01DX009 (ip), vehicle: saline with Tween-80 90 % of control | dose: 400.0 mg/kg/injection, schedule: Q04DX003 (ip), vehicle: saline with Tween-80 95 % of control

N#CC(/C=C/c1ccccc1)Nc1ccccc1N (centres undefined)
inactive: dose: 100.0 mg/kg/injection, schedule: Q01DX001 (ip), vehicle: saline with Tween-80 100 % of control | dose: 400.0 mg/kg/injection, schedule: Q01DX001 (ip), vehicle: saline with Tween-80 100 % of control

CCOP(=O)(CC(=O)c1cc2ccccc2[nH]1)OCC
inactive: dose: 12.5 mg/kg/injection, schedule: Q01DX009 (ip), vehicle: saline 100 % of control | [1] 92 % of control | [2] 106 % of control and 95 % of control | dose: 200.0 mg/kg/injection, schedule: Q01DX009 (ip), vehicle: saline 97 % of control

CCn1c(=O)c(C#N)c2n(CC)c3ccccc3n2c1=O
inactive: dose: 3.75 mg/kg/injection, schedule: Q01DX005 (ip), vehicle: saline with Tween-80 100 % of control | dose: 7.5 mg/kg/injection, schedule: Q01DX005 (ip), vehicle: saline with Tween-80 100 % of control | dose: 15.0 mg/kg/injection, schedule: Q01DX005 (ip), vehicle: saline with Tween-80 100 % of control

Cc1cc(NC(=O)c2ccc(NC(=O)c3ccc(N)cc3)cc2)ccc1N=Nc1ccc2c(O)c(N=Nc3ccc(S(=O)(=O)O)cc3C)c(S(=O)(=O)O)cc2c1
inactive: [3] 104 % of control and 107 % of control and 108 % of control | [10] 105 % of control and 112 % of control and 117 % of control | [11] 107 % of control and 114 % of control | dose: 400.0 mg/kg/injection, schedule: Q01DX005 (ip), vehicle: saline with Tween-80 113 % of control and 119 % of control

CC(=O)Nc1c2ccccc2nc2ccccc12
inactive: [3] 95 % of control | [10] 91 % of control | [11] 94 % of control

O=C(c1cc2ccccc2o1)N1CCN(Cc2ccccc2)CC1
inactive: [14] 102 % of control | [15] 101 % of control | [16] 109 % of control

CCN(CCO)C(=O)Nc1ccc(Cl)cc1
inactive: dose: 60.0 mg/kg/injection, schedule: Q01DX005 (ip), vehicle: Klucel + Tween-80 99 % of control | dose: 120.0 mg/kg/injection, schedule: Q01DX005 (ip), vehicle: Klucel + Tween-80 101 % of control | dose: 240.0 mg/kg/injection, schedule: Q01DX005 (ip), vehicle: Klucel + Tween-80 100 % of control

CCC(/C=C/c1ccccc1)=N\NC(=O)c1ccc(Cl)cc1
inactive: [4] 101 % of control | [5] 96 % of control | [6] 105 % of control

CN(C)c1ccc(N=Nc2ccc3ccc4cccc5ccc2c3c45)cc1
inactive: [17] 93 % of control | [12] 89 % of control | [13] 102 % of control

Cc1cc(N=Cc2ccc(C=Nc3ccc(Br)c(C)c3)cc2)ccc1Br
inactive: [14] 101 % of control | [15] 93 % of control | [16] 92 % of control

CCOCCOCCOC(C)Oc1cccc(C(=O)OCC)c1 (centres undefined)
inactive: [4] 92 % of control | [5] 100 % of control | [6] 92 % of control

C[C@]12CC[C@H]3[C@@H](CCC4=CC(=O)CC[C@@]43C)[C@@H]1CC[C@@H]2C(=O)C=O
inactive: [14] 109 % of control | [15] 106 % of control | [16] 103 % of control

O=C1Nc2ccccc2C1(O)Cc1ccccn1 (centres undefined)
inactive: dose: 25.0 mg/kg/injection, schedule: Q01DX009 (ip), vehicle: saline with Tween-80 105 % of control | [17] 95 % of control | [12] 107 % of control | [13] 103 % of control

c1ccc2c(c1)Sc1ccccc1N2Cc1cnc[nH]1
inactive: [14] 101 % of control | dose: 50.0 mg/kg/injection, schedule: Q01DX009 (ip), vehicle: alcohol 114 % of control | [15] 109 % of control | dose: 100.0 mg/kg/injection, schedule: Q01DX009 (ip), vehicle: alcohol 114 % of control | [16] 118 % of control

O=C(N/N=C/c1ccccc1O)C(=O)Nc1ccc(F)cc1
inactive: [18] 94 % of control | [19] 92 % of control | [20] 87 % of control

C/C(=C1/N=C(c2ccccc2)OC1=O)c1cccs1
inactive: [18] 106 % of control | [19] 100 % of control | [20] 96 % of control

CCC[N+]12CC=C3COC(=O)C(C)(O)C(C)(O)C(C)C(=O)OC(CC1)C32 (centres undefined)
inactive: [7] 100 % of control | [8] 105 % of control | [9] 98 % of control

CCN(c1ccccc1C(=O)O)S(=O)(=O)c1ccc(C)cc1
inactive: [18] 104 % of control | [19] 106 % of control

C=C(c1ccccc1)C1(O)CCCCC1N(C)C (centres undefined)
inactive: dose: 25.0 mg/kg/injection, schedule: Q04DX002 (ip), vehicle: saline with Tween-80 102 % of control | dose: 50.0 mg/kg/injection, schedule: Q04DX002 (ip), vehicle: saline with Tween-80 100 % of control | dose: 100.0 mg/kg/injection, schedule: Q04DX002 (ip), vehicle: saline with Tween-80 94 % of control

CCc1c(C)[nH]n(C(N)=NCCSCc2nc[nH]c2C)c1=O
inactive: dose: 60.0 mg/kg/injection, schedule: Q01DX005 (ip), vehicle: Klucel (hydroxypropylcellulose) (HPC) 108 % of control | dose: 120.0 mg/kg/injection, schedule: Q01DX005 (ip), vehicle: Klucel (hydroxypropylcellulose) (HPC) 100 % of control | dose: 240.0 mg/kg/injection, schedule: Q01DX005 (ip), vehicle: Klucel (hydroxypropylcellulose) (HPC) 91 % of control
